Data taken from patent US20100261658A1, “PEPTIDE FOR ACTIVATING AQUAPORIN SYNTHESIS” (priority 2007, published 2010).
Peptide text beside a SMILES is read from it.

System: aquaporin 3
Assay: Expression of aquaporin 3 by immunofluorescence in samples of skin ex vivo
Format: cell-based, human
Settings: 1% solution of a mother solution at 50 ppm applied topically, 24 hours or 48 hours; in particular upper layers of the epidermis; vs non-treated control
Method: The aim of this study is to determine the influence of the peptide SEQ ID no 5 on the expression of aquaporin 3 in samples of skin ex vivo.
Protocol: Samples of human skin are cultured at the air/liquid interface. A 1% solution of a mother solution at 50 ppm of peptide SEQ ID no 4 is applied topically, then the samples are incubated for 24 hours or 48 hours.
These skin samples are then fixed with formaldehyde then enclosed in paraffin. Sections of 2 to 3 μm are then realized. The immunolabeling is carried out after different stages of washing and incubation of these sections. The immunolabeling is carried out by means of a specific polyclonal antibody of aquaporin 3 (anti-aquaporin 3 (C-18): goat polyclonal, sc-9885, Santa Cruz, dilution 1/100th), then a secondary antibody, coupled to a fluorescent marker (alexa-fluor 488 donkey anti-goat Ig G, Molecular Probes, dilution 1/1000th). The skin sections are then examined by epifluorescence microscope (Nikon Eclipse E600 microscope).

C[C@H](NC(=O)[C@@H]1CCCN1C(=O)[C@@H](N)CC(N)=O)C(=O)N[C@@H](CCCNC(=N)N)C(=O)O [SEQ ID no 4, Asn-Pro-Ala-Arg] (H-NPAR-OH; N-terminus and C-terminus assumed) was tested, and the “aquaporin 3 immunofluorescence” value was “stronger fluorescence”.
